What is called EC50 is the concentration needed to bring the measured effect to its halfway point.

In one data set the test system is pancreatic progenitors. Conditions: previously reported, US2011/0070645; cited from earlier work.
Data set [1] deals with NGN3 mRNA (HUES 8-derived pancreatic progenitor cells). As to the kind of experiment: qRT-PCR of NGN3 expression in chemically-treated populations. The data set is classed as cell-based, human. Conditions: quantitative RT-PCR, HUES 8-derived cells. The source says: [drawing 11] was selected for follow up studies due to the high efficacy and low toxicity (FIG. 1C).
For orientation: In qPCR the cycle at which signal appears reflects the starting amount.

The test system of data set [2] is human c-peptide in serum of SCID-Beige mice. As to the kind of experiment: Kidney capsule transplantation of treated cells, glucose-stimulated human c-peptide ELISA. It counts as in vivo. The following applies: treated cells under kidney capsule of SCID-beige mice, 12 weeks, 30 mins after glucose. The source says:
FIGS. 2A-2B show the characterization of cells derived by PKC inhibitor treatment. […] Cells were stained with insulin, c-peptide, glucagon, UCN3, PDX1 and NKX6-1 antibodies. All insulin-expressing cells express c-peptide. Few insulin-expressing cells express NKX6-1 or UCN3, markers of mature human β cells. Many insulin-expressing cells co-express another endocrine marker glucagon. Scale bars are 100 μm. […] Scheme beginning with cells that have been treated with hit chemicals, e.g., PKC inhibitors, comprises a population containing many NGN3-expressing cells. The HUES 8-derived pancreatic progenitor cells treated with DMSO were used as negative controls. […] 12 weeks later, the mouse sera collected at fasting condition and at 30 mins after glucose stimulation were analyzed using ELISA to measure human c-peptide expression. […]
Kidney capsule implantation and tissue preparation. […] The c-peptide levels in mouse sera were measured using the human c-peptide ELISA kit (Alpco Diagnostics or Millipore).
The inventors next investigated the developmental potential of cell populations enriched for NGN3^+ cells that were induced by PKC inhibition. […] More c-peptide (a byproduct of insulin biosynthesis)-expressing cells were detected in the derivatives of PKCβ inhibitor treated cells (12.5 5.8%) than the derivatives of control cells (DMSO-treated, 1.2 1.2%; FIG. 2b). […]
For orientation: In an ELISA, binding on a coated surface is turned into a signal by an enzyme label.

Data set [3] deals with Human NGN3 (HUES 8-pancreatic progenitor population). Nature of the data set: High-content screen 1 and efficacy curve: NGN3+ cells by immunofluorescence (Cellomics). The data set is classed as cell-based. On the procedure: hESC culture and differentiation. Protocol 1. HUES 8 and H1 cells are routinely cultured on irradiated MEF feeder cells in KnockOut DMEM (Invitrogen) supplemented with 10% (v/v) KnockOut serum replacement (Invitrogen), 0.5% (v/v) human plasma fraction (Talecris Biotech), 2 mM L-glutamine (Invitrogen), 1.1 mM 2-mercaptoethanol (Invitrogen), 1 mM nonessential amino acids (Invitrogen), 1× penicillin/streptomycin (PS, Invitrogen) and 10 ng/ml bovine FGF (Invitrogen). Cells are passaged at the ratio of 1:6 every 5 d by using 0.05% trypsin (Invitrogen). To generate the HUES-pancreatic progenitor population, HUES cells were cultured on MEF feeder cells until 80-90% confluent, then treated with 25 ng/ml Wnt3a (R&D systems)+100 ng/ml activin A (R&D systems) in RPMI (Invitrogen) supplemented with 1×L-glutamine and 1×PS for 1 d, and then 100 ng/ml activin A in RPMI supplemented with 1×L-glutamine, 1×PS and 0.2% (v/v) fetal bovine serum (FBS, Invitrogen). The medium was changed 2 d later to 50 ng/ml/FGF7 (R&D systems) in RPMI supplemented with 1×L-glutamine, 1×PS and 2% (v/v) FBS, and maintained for an additional 2 d. Cells were then transferred to 100 ng/ml Noggin (R&D systems)+0.25 μM SANT-1 (Sigma)+2 μM retinoic acid (Sigma) in DMEM supplemented with 1×L-glutamine, 1×PS and 1×B27 (Invitrogen) and cultured for an 4 d, followed by treatment with 100 ng/ml Noggin (R&D systems)+1 μM ALK5 inhibitor (Enzo)+100 nM PDBu (Sigma) in DMEM supplemented with 1×L-glutamine, 1×PS and 1×B27 (Invitrogen) and cultured for an additional 4 d. All HUES-pancreatic progenitor cells were derived using the same protocol as described above. The percentage and number of PDX1^+ cells and NGN3^+ cells were analyzed with the Cellomics high content screening system (Thermo Scientific). PKCβ inhibitor was purchased from Calbiochem.
High-content screen 1. […]
Screen 1: Generation of efficacy curve. […] Six days later, the cells were stained with NGN3 antibody and the plates were analyzed with the Cellomics high content screening system (Thermo Scientific). […]

Consider (−)-Indolactam V, for which the “generation of pancreatic progenitors” value with pancreatic progenitors is listed as “promotes the generation of pancreatic progenitors”.

`O=C1NC(=O)C(c2cn(CCCn3ccnc3)c3ccccc23)=C1Nc1ccccc1` [PKCβ inhibitor]: the “expression of NGN3 mRNA compared to DMSO controls” value in data set [1] is listed as “higher expression of NGN3 mRNA”. Further, in data set [2], the “human c-peptide levels in the serum, glucose injection versus fasting” value is on record as “significantly higher upon glucose injection than during fasting”. For the same compound, the “percentage of NGN3+ cells, fold higher than the DMSO-treated controls” value in data set [3] (HUES 8, at maximum) is given as ~7 fold. The EC50 in data set [3] (Homo sapiens, 144 h, HUES 8-pancreatic progenitor population, six days, FIG. 1D, read-out: EC50, total number of NGN3+ cells) is 7.8 µM. For the same compound, the “toxicity in screen 1” value in data set [3] (reason for selection for follow up) is listed as “low toxicity”.

The values are drawn from patent US10941384B2, “Compositions and methods for promoting the generation of endocrine cells” (President and Fellows of Harvard College, priority 2013, dated 2021).
